# Source: PubChem BioAssay (NCI)
#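 Step 1: Grow cells in 96-well plates. Step 2: Expose to compound for 48 hours at 5 concentrations. Step 3: Interpolate endpoints linearly; if unreached, use highest concentration. TGI marks complete inhibition of growth.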
# Experiments:
# Assay in all cases: growth of human tumour cells (NCI), 48 h
# SW-620 colon = system: SW-620 colon
# CAKI-1 renal = system: CAKI-1 renal
# ACHN renal = system: ACHN renal
# IGROV1 ovarian = system: IGROV1 ovarian
# MDA-N = system: MDA-N
# MOLT-4 leukemia = system: MOLT-4 leukemia
# MDA-MB-231 breast = system: MDA-MB-231 breast
# SNB-75 CNS = system: SNB-75 CNS
# K-562 leukemia = system: K-562 leukemia
# HL-60(TB) leukemia = system: HL-60(TB) leukemia
# CCRF-CEM leukemia = system: CCRF-CEM leukemia
# HS 578T breast = system: HS 578T breast
# COLO 205 colon = system: COLO 205 colon
# SN12C renal = system: SN12C renal
# MCF7 breast = system: MCF7 breast
# HT29 colon = system: HT29 colon
# HCC-2998 colon = system: HCC-2998 colon
# UACC-62 melanoma = system: UACC-62 melanoma
# M14 melanoma = system: M14 melanoma
# OVCAR-5 ovarian = system: OVCAR-5 ovarian
# HOP-62 NSCLC = system: HOP-62 NSCLC
# NCI-H522 lung = system: NCI-H522 lung
# TK-10 renal = system: TK-10 renal
# HCT-116 colon = system: HCT-116 colon
# MALME-3M melanoma = system: MALME-3M melanoma
# SF-539 CNS = system: SF-539 CNS
# SK-MEL-28 melanoma = system: SK-MEL-28 melanoma
# NCI-H226 lung = system: NCI-H226 lung
# UO-31 renal = system: UO-31 renal
# A549 NSCLC = system: A549 NSCLC
# OVCAR-3 ovarian = system: OVCAR-3 ovarian
# PC-3 prostate = system: PC-3 prostate
# SK-OV-3 ovarian = system: SK-OV-3 ovarian
# DU-145 prostate = system: DU-145 prostate
# SR leukemia = system: SR leukemia
# 786-0 renal = system: 786-0 renal
# U251 CNS = system: U251 CNS
# SNB-19 CNS = system: SNB-19 CNS
# KM12 colon = system: KM12 colon
# MDA-MB-435 = system: MDA-MB-435
# SF-295 CNS = system: SF-295 CNS
# A498 renal = system: A498 renal
# NCI/ADR-RES ovarian = system: NCI/ADR-RES ovarian
# SF-268 CNS = system: SF-268 CNS
# SK-MEL-5 melanoma = system: SK-MEL-5 melanoma
# NCI-H23 lung = system: NCI-H23 lung
# T-47D breast = system: T-47D breast
# UACC-257 melanoma = system: UACC-257 melanoma
# BT-549 breast = system: BT-549 breast
# OVCAR-8 ovarian = system: OVCAR-8 ovarian
# SK-MEL-2 melanoma = system: SK-MEL-2 melanoma
# NCI-H460 lung = system: NCI-H460 lung
# HCT-15 colon = system: HCT-15 colon
# EKVX NSCLC = system: EKVX NSCLC
# HOP-92 NSCLC = system: HOP-92 NSCLC
# OVCAR-4 ovarian = system: OVCAR-4 ovarian
# LOX IMVI melanoma = system: LOX IMVI melanoma
# RPMI-8226 leukemia = system: RPMI-8226 leukemia
# RXF 393 renal = system: RXF 393 renal
compound,measurement,setting,value
CC(CO)(CO)N1C(=O)C2C3c4ccccc4C(c4ccccc43)C2C1=O (stereo not given),TGI,SW-620 colon,> 100 µM
same,TGI,CAKI-1 renal,> 100 µM
same,TGI,ACHN renal,> 100 µM
same,TGI,IGROV1 ovarian,> 100 µM
same,TGI,MDA-N,> 100 µM
same,TGI,MOLT-4 leukemia,> 100 µM
same,TGI,MDA-MB-231 breast,> 100 µM
same,TGI,SNB-75 CNS,> 100 µM
same,TGI,K-562 leukemia,> 100 µM
same,TGI,HL-60(TB) leukemia,> 100 µM
same,TGI,CCRF-CEM leukemia,> 100 µM
same,TGI,HS 578T breast,> 100 µM
same,TGI,COLO 205 colon,> 100 µM
same,TGI,SN12C renal,> 100 µM
same,TGI,MCF7 breast,> 100 µM
same,TGI,HT29 colon,> 100 µM
same,TGI,HCC-2998 colon,> 100 µM
same,TGI,UACC-62 melanoma,> 100 µM
same,TGI,M14 melanoma,> 100 µM
same,TGI,OVCAR-5 ovarian,> 100 µM
same,TGI,HOP-62 NSCLC,> 100 µM
same,TGI,NCI-H522 lung,> 100 µM
same,TGI,TK-10 renal,> 100 µM
same,TGI,HCT-116 colon,> 100 µM
same,TGI,MALME-3M melanoma,> 100 µM
same,TGI,SF-539 CNS,> 100 µM
same,TGI,SK-MEL-28 melanoma,> 100 µM
same,TGI,NCI-H226 lung,> 100 µM
same,TGI,UO-31 renal,> 100 µM
same,TGI,A549 NSCLC,> 100 µM
same,TGI,OVCAR-3 ovarian,> 100 µM
same,TGI,PC-3 prostate,> 100 µM
same,TGI,SK-OV-3 ovarian,> 100 µM
same,TGI,DU-145 prostate,> 100 µM
same,TGI,SR leukemia,> 100 µM
same,TGI,786-0 renal,> 100 µM
same,TGI,U251 CNS,> 100 µM
same,TGI,SNB-19 CNS,> 100 µM
same,TGI,KM12 colon,> 100 µM
same,TGI,MDA-MB-435,> 100 µM
same,TGI,SF-295 CNS,> 100 µM
same,TGI,A498 renal,> 100 µM
same,TGI,NCI/ADR-RES ovarian,> 100 µM
same,TGI,SF-268 CNS,> 100 µM
same,TGI,SK-MEL-5 melanoma,> 100 µM
same,TGI,NCI-H23 lung,> 100 µM
same,TGI,T-47D breast,> 100 µM
same,TGI,UACC-257 melanoma,> 100 µM
same,TGI,BT-549 breast,> 100 µM
same,TGI,OVCAR-8 ovarian,> 100 µM
same,TGI,SK-MEL-2 melanoma,> 100 µM
same,TGI,NCI-H460 lung,> 100 µM
same,TGI,HCT-15 colon,> 100 µM
CC(=O)O[C@H](C[C@@H](C)[C@H]1C(=O)[C@H](O)[C@@]2(C)C3CC[C@H]4C(C)(C)[C@@H](OC5OCC(O)C(O)C5O)CC[C@@]45C[C@@]35CC[C@]12C)[C@@H]1OC1(C)C (stereo not given in full),TGI,SW-620 colon,> 100 µM
same,TGI,CAKI-1 renal,33.3 µM
same,TGI,ACHN renal,29.4 µM
same,TGI,IGROV1 ovarian,29.7 µM
same,TGI,MDA-N,40.2 µM
same,TGI,MDA-MB-231 breast,34.7 µM
same,TGI,SNB-75 CNS,26.1 µM
same,TGI,K-562 leukemia,15.3 µM
same,TGI,HL-60(TB) leukemia,22.6 µM
same,TGI,CCRF-CEM leukemia,> 100 µM
same,TGI,HS 578T breast,> 100 µM
same,TGI,EKVX NSCLC,44.3 µM
same,TGI,COLO 205 colon,61.3 µM
same,TGI,SN12C renal,35.7 µM
same,TGI,MCF7 breast,34.8 µM
same,TGI,HT29 colon,> 100 µM
same,TGI,HCC-2998 colon,29.8 µM
same,TGI,HOP-92 NSCLC,30.6 µM
same,TGI,UACC-62 melanoma,27 µM
same,TGI,M14 melanoma,94.5 µM
same,TGI,OVCAR-4 ovarian,64.5 µM
same,TGI,OVCAR-5 ovarian,32 µM
same,TGI,HOP-62 NSCLC,31.1 µM
same,TGI,NCI-H522 lung,33.8 µM
same,TGI,TK-10 renal,29.8 µM
same,TGI,HCT-116 colon,38 µM
same,TGI,MALME-3M melanoma,32.4 µM
same,TGI,SF-539 CNS,29.8 µM
same,TGI,SK-MEL-28 melanoma,44.7 µM
same,TGI,NCI-H226 lung,33.2 µM
same,TGI,UO-31 renal,54.7 µM
same,TGI,A549 NSCLC,> 100 µM
same,TGI,OVCAR-3 ovarian,7.18 µM
same,TGI,PC-3 prostate,30.4 µM
same,TGI,LOX IMVI melanoma,> 100 µM
same,TGI,SK-OV-3 ovarian,26.4 µM
same,TGI,DU-145 prostate,37.7 µM
same,TGI,786-0 renal,30.2 µM
same,TGI,U251 CNS,29.9 µM
same,TGI,SNB-19 CNS,65.4 µM
same,TGI,KM12 colon,53.8 µM
same,TGI,MDA-MB-435,36.2 µM
same,TGI,SF-295 CNS,33.6 µM
same,TGI,A498 renal,29.3 µM
same,TGI,NCI/ADR-RES ovarian,> 100 µM
same,TGI,SF-268 CNS,46.7 µM
same,TGI,SK-MEL-5 melanoma,29.7 µM
same,TGI,NCI-H23 lung,55.4 µM
same,TGI,RPMI-8226 leukemia,26.4 µM
same,TGI,T-47D breast,63.6 µM
same,TGI,UACC-257 melanoma,34.8 µM
same,TGI,BT-549 breast,51.4 µM
same,TGI,OVCAR-8 ovarian,41.3 µM
same,TGI,RXF 393 renal,34.1 µM
same,TGI,SK-MEL-2 melanoma,29.5 µM
same,TGI,NCI-H460 lung,30.6 µM
same,TGI,HCT-15 colon,55.4 µM
